target: T1, hCRTH2 (Homo sapiens, UniProt Q9Y5Y4); assay: Radioligand binding assay ([3H]PGD2 competition, HEK-hCRTH2 membranes); settings: [3H]PGD2 binding, rated A-E (Table A)
T1 construct: expressed in transfected cells; host or cells: HEK (human embryonic kidney) cells expressing hCRTH2; membrane preparation
T1 sequence (Q9Y5Y4 1-395): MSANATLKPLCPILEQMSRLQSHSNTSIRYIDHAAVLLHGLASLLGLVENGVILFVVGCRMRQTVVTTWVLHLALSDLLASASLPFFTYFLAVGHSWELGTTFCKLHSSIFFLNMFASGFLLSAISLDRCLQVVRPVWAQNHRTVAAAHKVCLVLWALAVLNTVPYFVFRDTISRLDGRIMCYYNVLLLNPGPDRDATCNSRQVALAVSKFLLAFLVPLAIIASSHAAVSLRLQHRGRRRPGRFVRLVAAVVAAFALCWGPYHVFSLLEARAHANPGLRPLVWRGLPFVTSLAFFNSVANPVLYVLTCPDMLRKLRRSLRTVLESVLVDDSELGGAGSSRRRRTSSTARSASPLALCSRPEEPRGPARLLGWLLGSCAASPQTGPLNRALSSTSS
Method: Biological Assays Radioligand Binding Assay.
Radioligand binding assays were performed at room temperature in 50 mM Tris-HCl pH 7.4, 1 mM EDTA containing 2 mM MnCl2 and 3.0 nM [^3H]PGD2 (New England Nuclear, Boston, Mass.) (171 Ci mmol^−1), in a final volume of 0.2 mL. Competing ligands were diluted in dimethylsulfoxide (Me2SO) that was kept constant at 1% (v/v) of the final incubation volume. The reaction was initiated by the addition of 8-20 μg of membrane protein prepared from a human embryonic kidney (HEK)-hCRTH2 cell line. Total and non-specific binding were determined in the absence and the presence of 10 μM PGD2, respectively. […] The reaction was routinely conducted for 60 min at room temperature and terminated by rapid filtration through prewetted (0.3% polyethyleneimine) 96-well printed Filtermate™ (Wallac) using a Tomtec® harvester (Hamden, Conn.). After washing with cold buffer, the filter was dried for 2 minutes in microwave, and Meltilex Scintillator sheet (Wallac) was melted on for 2 min. The radioactivity was measured with Betaplate model 1205 (Wallac).

| SMILES | Ki [nM] |
| --- | --- |
| COc1ccc(C(C)NC(=O)c2ccc3nc(-c4ccccc4)c(CCCCC(=O)O)nc3c2)cc1 (centres unmarked) [15AU, 5-(7-{[1-(4-methoxyphenyl)ethyl]carbamoyl}-3-phenyl-quinoxalin-2-yl) pentanoic acid] | 2.1 to 20 |
| O=C(O)CCCCc1nc2cc(C(=O)NCc3ccc(OC(F)(F)F)cc3)ccc2nc1-c1ccccc1 [15AV, 5-(3-phenyl-7-{[4-(trifluoromethoxy)benzyl]carbamoyl}quinoxalin-2-yl)pentanoic acid] | 0.1 to 2 |
| Cc1ccc(CNC(=O)c2ccc3nc(-c4ccccc4)c(CCCCC(=O)O)nc3c2)cc1 [15AW, 5-{7-[(4-methylbenzyl)carbamoyl]-3-phenylquinoxalin-2-yl}pentanoic acid] | 0.1 to 2 |
| C[C@@H](NC(=O)c1ccc2nc(-c3ccccc3)c(CCCCC(=O)O)nc2c1)c1ccc(Cl)cc1 [15AX, 5-(7-{[(1R)-1-(4-chlorophenyl)ethyl]carbamoyl}-3-phenyl-quinoxalin-2-yl)pentanoic acid] | 2.1 to 20 |
| Cc1ccc([C@@H](C)NC(=O)c2ccc3nc(-c4ccccc4)c(CCCCC(=O)O)nc3c2)cc1 [15AY, 5-(7-{[(1R)-1-(4-methylphenyl)ethyl]carbamoyl}-3-phenyl-quinoxalin-2-yl)pentanoic acid] | 2.1 to 20 |
| CCc1ccc(CNC(=O)c2ccc3nc(-c4ccccc4)c(CCCCC(=O)O)nc3c2)cc1 [15AZ, 5-{7-[(4-ethylbenzyl)carbamoyl]-3-phenylquinoxalin-2-yl}pentanoic acid] | 2.1 to 20 |
| CN(Cc1ccccc1)C(=O)c1ccc2nc(-c3ccccc3)c(CCCCC(=O)O)nc2c1 [15Ao, 5-{7-[benzyl(methyl)carbamoyl]-3-phenylquinoxalin-2-yl}pentanoic acid] | 0.1 to 2 |
| C[C@H](NC(=O)c1ccc2nc(-c3ccccc3)c(CCCCC(=O)O)nc2c1)c1ccccc1 [15B, 5-(3-phenyl-7-{[(1S)-1-phenylethyl]carbamoyl}quinoxalin-2-yl) pentanoic acid] | 2.1 to 20 |
| COc1ccc(CNC(=O)c2ccc3nc(-c4ccccc4)c(CCCCC(=O)O)nc3c2)cc1 [15BA, 5-{7-[(4-methoxybenzyl)carbamoyl]-3-phenylquinoxalin-2-yl}pentanoic acid] | 0.1 to 2 |
| N#Cc1ccc(CNC(=O)c2ccc3nc(-c4ccccc4)c(CCCCC(=O)O)nc3c2)cc1 [15BB, 5-{7-[(4-cyanobenzyl)carbamoyl]-3-phenylquinoxalin-2-yl}pentanoic acid] | 2.1 to 20 |
| Cc1ccc([C@H](C)NC(=O)c2ccc3nc(-c4ccccc4)c(CCCCC(=O)O)nc3c2)cc1 [15BC, 5-(7-{[(1S)-1-(4-methylphenyl)ethyl]carbamoyl}-3-phenylquinoxalin-2-yl)pentanoic acid] | 2.1 to 20 |
| CC(NC(=O)c1ccc2nc(-c3ccccc3)c(CCCCC(=O)O)nc2c1)c1ccc(OC(F)(F)F)cc1 (centres unmarked) [15BD, 5-[3-phenyl-7-({1-[4-(trifluoromethoxy)phenyl]ethyl}carbamoyl)quinoxalin-2-yl] pentanoic acid] | 2.1 to 20 |
| CC(NC(=O)c1ccc2nc(-c3ccccc3)c(CCCCC(=O)O)nc2c1)c1ccccc1F (centres unmarked) [15BH, 5-(7-{[1-(2-fluorophenyl)ethyl]carbamoyl}-3-phenylquinoxalin-2-yl)pentanoic acid] | 2.1 to 20 |
| C[C@@H](NC(=O)c1ccc2nc(-c3ccccc3)c(CCCCC(=O)O)nc2c1)c1ccccc1C(F)(F)F [15BL, 5-[3-phenyl-7-({(1R)-1-[2-(trifluoromethyl)phenyl]ethyl}carbamoyl)quinoxalin-2-yl]pentanoic acid] | 20.1 to 200 |
| C[C@H](NC(=O)c1ccc2nc(-c3ccccc3)c(CCCCC(=O)O)nc2c1)c1ccc(Cl)cc1 [15BM, 5-(7-{[(1S)-1-(4-chlorophenyl)ethyl]carbamoyl}-3-phenylquinoxalin-2-yl)pentanoic acid] | 2.1 to 20 |

Now from value to compound:

| Ki [nM] | SMILES |
| --- | --- |
| 2.1 to 20 | CCNC(=O)c1ccc2nc(-c3ccccc3)c(CCCCC(=O)O)nc2c1 [15AS, 5-[7-(ethylcarbamoyl)-3-phenylquinoxalin-2-yl]pentanoic acid] |
| 0.1 to 2 | O=C(O)CCCCc1nc2cc(C(=O)NC3CCc4ccccc43)ccc2nc1-c1ccccc1 (centres unmarked) [15AT, 5-[7-(2,3-dihydro-1H-inden-1-ylcarbamoyl)-3-phenylquinoxalin-2-yl]pentanoic acid] |
| 0.1 to 2 | O=C(O)CCCCc1nc2cc(C(=O)N3CCC(c4ccccc4)CC3)ccc2nc1-c1ccccc1 [15Ai, 5-{3-phenyl-7-[(4-phenylpiperidin-1-yl)carbonyl]quinoxalin-2-yl}pentanoic acid] |
| 2.1 to 20 | O=C(O)CCCCc1nc2cc(C(=O)N3CCCC3)ccc2nc1-c1ccccc1 [15BE, 5-[3-phenyl-7-(pyrrolidin-1-ylcarbonyl)quinoxalin-2-yl]pentanoic aicd] |
| 2.1 to 20 | O=C(O)CCCCc1nc2cc(C(=O)N3CCCCC3)ccc2nc1-c1ccccc1 [15BF, 5-[3-phenyl-7-(piperidin-1-ylcarbonyl)quinoxalin-2-yl] pentanoic acid] |
| 2.1 to 20 | CNC(=O)c1ccc2nc(-c3ccccc3)c(CCCCC(=O)O)nc2c1 [15BG, 5-[7-(methylcarbamoyl)-3-phenylquinoxalin-2-yl]pentanoic acid] |
| 2.1 to 20 | CON(C)C(=O)c1ccc2nc(-c3ccccc3)c(CCCCC(=O)O)nc2c1 [15BJ, 5-{7-[methoxy(methyl)carbamoyl]-3-phenylquinoxalin-2-yl}pentanoic acid] |
| 0.1 to 2 | O=C(O)CCCCc1nc2cc(C(=O)NC3Cc4ccccc4C3)ccc2nc1-c1ccccc1 [15BK, 5-[7-(2,3-dihydro-1H-inden-2-ylcarbamoyl)-3-phenylquinoxalin-2-yl]pentanoic acid] |
| 2.1 to 20 | O=C(O)CCCCc1nc2cc(C(=O)NCCCN3CCCC3=O)ccc2nc1-c1ccccc1 [15BN, 5-(7-{[3-(2-oxopyrrolidin-1-yl)propyl]carbamoyl}-3-phenylquinoxalin-2-yl)pentanoic acid] |
| 2.1 to 20 | Cc1cn(C2CCN(C(=O)c3ccc4nc(-c5ccccc5)c(CCCCC(=O)O)nc4c3)CC2)nn1 [15BQ, 5-(7-{[4-(4-methyl-1H-1,2-3-triazol-1-yl)piperidin-1-yl]carbonyl}-3-phenylquinoxalin-2-yl) pentanoic acid] |
| 0.1 to 2 | Cc1cnnn1C1CCN(C(=O)c2ccc3nc(-c4ccccc4)c(CCCCC(=O)O)nc3c2)CC1 [15BR, 5-(7-{[4-(5-methyl-1H-1,2,3-triazol-1-yl)piperidin-1-yl]carbonyl}-3-phenylquinoxalin-2-yl)pentanoic acid] |
| 2.1 to 20 | O=C(O)CCCCc1nc2cc(C(=O)N3CCC(c4cnccn4)CC3)ccc2nc1-c1ccccc1 [15BS, 5-{3-phenyl-7-[(4-pyrazin-2-ylpiperidin-1-yl)carbonyl]quinoxalin-2-yl}pentanoic acid] |
| 0.1 to 2 | O=C(O)CCCCc1nc2cc(C(=O)NCc3cc(Cl)ccn3)ccc2nc1-c1ccccc1 [15BT, 5-(7-{[(4-chloropyridin-2-yl)methyl]carbamoyl}-3-phenylquinoxalin-2-yl)pentanoic acid] |
| 0.1 to 2 | O=C(O)CCCCc1nc2cc(C(=O)NCc3cccc(Cl)n3)ccc2nc1-c1ccccc1 [15BU, 5-(7-{[(6-chloropyridin-2-yl)methyl]carbamoyl}-3-phenylquinoxalin-2-yl)pentanoic acid] |
| 0.1 to 2 | O=C(O)CCCCc1nc2cc(C(=O)N3CCCc4ccccc43)ccc2nc1-c1ccccc1 [15Bi, 5-[7-(3,4-dihydro-quinolin-1(2H)-ylcarbonyl)-3-phenylquinoxalin-2-yl]pentanoic acid] |

same assay, conditions: [3H]PGD2 binding, values in text

| SMILES | Ki [nM] |
| --- | --- |
| C[C@@H](NC(=O)c1ccc2nc(-c3ccccc3)c(CCCCC(=O)O)nc2c1)c1ccc(Cl)cc1 [15AX, 5-(7-{[(1R)-1-(4-chlorophenyl)ethyl]carbamoyl}-3-phenyl-quinoxalin-2-yl)pentanoic acid] | 3 |
| CN(Cc1ccccc1)C(=O)c1ccc2nc(-c3ccccc3)c(CCCCC(=O)O)nc2c1 [15Ao, 5-{7-[benzyl(methyl)carbamoyl]-3-phenylquinoxalin-2-yl}pentanoic acid] | 1 |
| C[C@@H](NC(=O)c1ccc2nc(-c3ccccc3)c(CCCCC(=O)O)nc2c1)c1ccccc1C(F)(F)F [15BL, 5-[3-phenyl-7-({(1R)-1-[2-(trifluoromethyl)phenyl]ethyl}carbamoyl)quinoxalin-2-yl]pentanoic acid] | 69.9 |

More lines, now with the values ahead:

| Ki [nM] | SMILES |
| --- | --- |
| 1.9 | O=C(O)CCCCc1nc2cc(C(=O)N3CCC(c4ccccc4)CC3)ccc2nc1-c1ccccc1 [15Ai, 5-{3-phenyl-7-[(4-phenylpiperidin-1-yl)carbonyl]quinoxalin-2-yl}pentanoic acid] |
| 0.1 | Cc1cnnn1C1CCN(C(=O)c2ccc3nc(-c4ccccc4)c(CCCCC(=O)O)nc3c2)CC1 [15BR, 5-(7-{[4-(5-methyl-1H-1,2,3-triazol-1-yl)piperidin-1-yl]carbonyl}-3-phenylquinoxalin-2-yl)pentanoic acid] |
